Measurements as given in ChEMBL document CHEMBL1201862, “PubChem BioAssay data set” (2004).
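A five-concentration, 48-hour dose response in 96-well plates underlies each endpoint, interpolated linearly between surrounding concentrations. GI50: concentration for 50% inhibition of growth.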 The source made the active and inactive calls. No stated cut-off is given here; in the data, active = GI50 up to about 1.1 µM and inactive = higher.

Experiments:
Experiment in all cases: growth of human tumour cells (NCI), 48 h
MOLT-4 = test system: MOLT-4
DU-145 = test system: DU-145
ACHN = test system: ACHN
HOP-62 = test system: HOP-62
OVCAR-4 = test system: OVCAR-4
MCF7 = test system: MCF7
PC-3 = test system: PC-3
UACC-62 = test system: UACC-62
SK-MEL-2 = test system: SK-MEL-2
RXF 393 = test system: RXF 393
CAKI-1 = test system: CAKI-1
786-0 = test system: 786-0
MDA-MB-435 = test system: MDA-MB-435
OVCAR-3 = test system: OVCAR-3
SNB-75 = test system: SNB-75
OVCAR-8 = test system: OVCAR-8
TK-10 = test system: TK-10
Malme-3M = test system: Malme-3M
EKVX = test system: EKVX
CCRF-CEM = test system: CCRF-CEM

Structure (SMILES)	GI50 (MOLT-4)	GI50 (DU-145)	GI50 (ACHN)	GI50 (HOP-62)	GI50 (OVCAR-4)	GI50 (MCF7)	GI50 (PC-3)	GI50 (UACC-62)	GI50 (SK-MEL-2)	GI50 (RXF 393)	GI50 (CAKI-1)	GI50 (786-0)	GI50 (MDA-MB-435)	GI50 (OVCAR-3)	GI50 (SNB-75)	GI50 (OVCAR-8)	GI50 (TK-10)	GI50 (Malme-3M)	GI50 (EKVX)	GI50 (CCRF-CEM)
Nc1c2c(nc3ccccc13)CCCc1ccccc1-2	16.6 µM (inactive)	21.5 µM (inactive)	10.3 µM (inactive)	12.4 µM (inactive)	20.1 µM (inactive)	13.1 µM (inactive)	14.3 µM (inactive)	6.7 µM (inactive)	13.4 µM (inactive)	11.4 µM (inactive)	15.9 µM (inactive)	11.3 µM (inactive)	11.3 µM (inactive)	27 µM (inactive)	13.5 µM (inactive)	14.1 µM (inactive)	6.08 µM (inactive)	18.5 µM (inactive)	13.2 µM (inactive)	
CCC1NC(=O)C(NC(=O)c2ncccc2O)C(C)OC(=O)C(c2ccccc2)NC(=O)C2CC(=O)CCN2C(=O)C(Cc2ccccc2)N(C)C(=O)C2CCCN2C1=O (stereo unspecified)		> 100 µM (inactive)	> 100 µM (inactive)	> 100 µM (inactive)	57.1 µM (inactive)	> 100 µM (inactive)	> 100 µM (inactive)	> 100 µM (inactive)	> 100 µM (inactive)	> 100 µM (inactive)	> 100 µM (inactive)	> 100 µM (inactive)	> 100 µM (inactive)	> 100 µM (inactive)	> 100 µM (inactive)	> 100 µM (inactive)	> 100 µM (inactive)	> 100 µM (inactive)		41.5 µM (inactive)
O=C1CCC(CCc2nc3ccccc3[nH]2)(c2ccccc2)C(=O)N1 (stereo unspecified)		> 100 µM (inactive)	> 100 µM (inactive)	> 100 µM (inactive)	> 100 µM (inactive)	> 100 µM (inactive)	> 100 µM (inactive)	> 100 µM (inactive)	> 100 µM (inactive)	> 100 µM (inactive)	> 100 µM (inactive)	> 100 µM (inactive)	> 100 µM (inactive)	> 100 µM (inactive)	86.1 µM (inactive)	> 100 µM (inactive)	> 100 µM (inactive)	> 100 µM (inactive)	62.4 µM (inactive)	> 100 µM (inactive)
CO/N=C1\CC(NC(=O)C(F)(F)F)c2ccsc21 (stereo unspecified)	> 100 µM (inactive)	> 100 µM (inactive)		> 100 µM (inactive)	> 100 µM (inactive)	> 100 µM (inactive)	> 100 µM (inactive)	> 100 µM (inactive)	> 100 µM (inactive)	> 100 µM (inactive)	> 100 µM (inactive)		> 100 µM (inactive)	> 100 µM (inactive)	> 100 µM (inactive)	> 100 µM (inactive)	> 100 µM (inactive)	> 100 µM (inactive)	> 100 µM (inactive)	> 100 µM (inactive)
CCOC(=O)CC(=O)Nc1cccc2nc[nH]c12	> 100 µM (inactive)	> 100 µM (inactive)	> 100 µM (inactive)	> 100 µM (inactive)	> 100 µM (inactive)	> 100 µM (inactive)	> 100 µM (inactive)	> 100 µM (inactive)	> 100 µM (inactive)	> 100 µM (inactive)	> 100 µM (inactive)	> 100 µM (inactive)	> 100 µM (inactive)	> 100 µM (inactive)	0.294 µM (active)	> 100 µM (inactive)		> 100 µM (inactive)	> 100 µM (inactive)	> 100 µM (inactive)
CC(=O)OCC1OC(N2C(C)=C(C(C)=O)C(c3ccco3)C(C#N)=C2S)C(OC(C)=O)C(OC(C)=O)C1OC(C)=O (stereo unspecified)	> 100 µM (inactive)	> 100 µM (inactive)	> 100 µM (inactive)	> 100 µM (inactive)	> 100 µM (inactive)	> 100 µM (inactive)	> 100 µM (inactive)	> 100 µM (inactive)	> 100 µM (inactive)	> 100 µM (inactive)	> 100 µM (inactive)	> 100 µM (inactive)	> 100 µM (inactive)	> 100 µM (inactive)	> 100 µM (inactive)	> 100 µM (inactive)	> 100 µM (inactive)	> 100 µM (inactive)		> 100 µM (inactive)
COc1ccc(C2SCC(=O)N2NC2=NC(=O)CC(=O)N2)cc1 (stereo unspecified)	> 100 µM (inactive)	> 100 µM (inactive)	> 100 µM (inactive)	> 100 µM (inactive)	> 100 µM (inactive)	> 100 µM (inactive)	> 100 µM (inactive)	> 100 µM (inactive)	> 100 µM (inactive)	> 100 µM (inactive)	> 100 µM (inactive)	> 100 µM (inactive)	> 100 µM (inactive)	> 100 µM (inactive)	> 100 µM (inactive)	> 100 µM (inactive)	> 100 µM (inactive)	> 100 µM (inactive)		> 100 µM (inactive)
